Results from patent US7030143B2, “Heterocyclic compounds” (Nippon Shinyaku Co., Ltd., priority 2000, dated 2006).

System: KK-A^y mice
Assay: Effects on carbohydrate and lipid metabolism in KK-A^y mouse
Assay type: in vivo
Conditions: oral, 4 days; for Percent change of each parameter compared to control group (%): AI: Atherogenic Index = (TC − HDL-C)/HDL-C; for Percent change of each parameter compared to control group (%): BG: plasma glucose level; for Percent change of each parameter compared to control group (%): Ins: plasma insulin level; for Percent change of each parameter compared to control group (%): TG: plasma triglyceride level; for Percent change of each parameter compared to control group (%): HDL-C: serum HDL-C level; for Percent change of each parameter compared to control group (%): (V)LDL-C: sum of VLDL-C and LDL-C level in serum
Protocol: The experiment was conducted using the compounds described in the Examples as test compounds and Troglitazone (5-[4-(6-hydroxy-2,5,7,8-tetramethylchroman-2-ylmethoxy)benzyl]-2,4-thiazolidinedione) as a control compound.
Each test compound was orally administered to KK-A^y mice (10 week old, male), NIDDM model animal, for 4 days at a given dosage. On the next day of the last administration, blood was collected from tail end blood vessels under non-fasting conditions to prepare heparinized plasma. Thereafter, blood was collected from an abdominal large vein under pentobarbital anesthesia to prepare serum. The glucose level (BG), triglyceride level (TG) and insulin level (Ins) in plasma were measured using a glucose CII-test Wako (Wako Pure Chemical Industries, Ltd), CLINTECH TG-S (IATORON LABORATORIES, INC.) or triglyceride E-test WAKO (Wako Pure Chemical Industries, Ltd), and a rat insulin measurement kit (Morinaga Biochemistry Research Institute) or REBIS-insulin-mouse-T (Mouse Insulin ELISA (TMB) KIT, Shibayagi Co., Ltd), respectively. Also, the sum of VLDL-C level and LDL-C level in serum (hereinafter, referred to as “(V)LDL-C”), total cholesterol level (TC) and HDL-C level were measured using a high performance liquid chromatography system for the measurement of lipoprotein cholesterol (TOSOH CORPORATION). (V)LDL-C level was measured because VLDL-C and LDL-C cannot be measured separately. Atherogenic Index (AI) was calculated according to the following formula: AI=[(TC level)−(HDL-C level)]/(HDL-C level).

| Structure (SMILES) | Percent change of each parameter compared to control group (%): AI (dose 1 mg/kg) [%] | Percent change of each parameter compared to control group (%): BG (dose 1 mg/kg) [%] | Percent change of each parameter compared to control group (%): Ins (dose 1 mg/kg) [%] | Percent change of each parameter compared to control group (%): TG (dose 1 mg/kg) [%] | Percent change of each parameter compared to control group (%): HDL-C (dose 1 mg/kg) [%] | Percent change of each parameter compared to control group (%): (V)LDL-C (dose 1 mg/kg) [%] | Percent change of each parameter compared to control group (%): AI (dose 3 mg/kg) [%] | Percent change of each parameter compared to control group (%): BG (dose 3 mg/kg) [%] | Percent change of each parameter compared to control group (%): Ins (dose 3 mg/kg) [%] | Percent change of each parameter compared to control group (%): TG (dose 3 mg/kg) [%] | Percent change of each parameter compared to control group (%): HDL-C (dose 3 mg/kg) [%] | Percent change of each parameter compared to control group (%): (V)LDL-C (dose 3 mg/kg) [%] | also measured |
| --- | --- | --- | --- | --- | --- | --- | --- | --- | --- | --- | --- | --- | --- |
| Cc1oc(-c2ccccc2)nc1CCCCC1COC(C)(C(=O)O)OC1 (stereo not drawn) [Example 9, 2-Methyl-c-5-[4-(5-methyl-2-phenyloxazol-4-yl)butyl]-1,3-dioxane-r-2-carboxylic acid] | −49 | −12 | −36 | −46 | 36 | −29 |  |  |  |  |  |  |  |
| Cc1ccc(-c2nc(CCCCC3COC(C)(C(=O)O)OC3)c(C)o2)cc1 (stereo not drawn) [Example 11, 2-Methyl-c-5-{4-[5-methyl-2-(p-tolyl)oxazol-4-yl]butyl}-1,3-dioxane-r-2-carboxylic acid] |  |  |  |  |  |  | −91 | −36 | −16 | −83 | 11 | −89 |  |
| CC1(C(=O)O)OCC(CCCCc2coc(-c3ccccc3)n2)CO1 (stereo not drawn) [Example 14, 2-Methyl-c-5-[4-(2-phenyloxazol-4-yl)butyl]-1,3-dioxane-r-2-carboxylic acid] | −45 | −22 | −67 | −29 | 19 | −38 |  |  |  |  |  |  |  |
| Cc1oc(-c2ccc(C(C)(C)C)cc2)nc1CCCCC1COC(C)(C(=O)O)OC1 (stereo not drawn) [Example 18, c-5-{4-[2-(4-tert-Butylphenyl)-5-methyloxazol-4-yl]butyl}-2-methyl-1,3-dioxane-r-2-carboxylic acid] |  |  |  |  |  |  | −65 | −12 | −1 | −43 | 76 | −20 |  |
| Cc1oc(-c2ccc(C(F)(F)F)cc2)nc1CCCCC1COC(C)(C(=O)O)OC1 (stereo not drawn) [Example 20, 2-Methyl-c-5-{4-[5-methyl-2-(4-trifluoromethylphenyl)-oxazol-4-yl]butyl}-1,3-dioxane-r-2-carboxylic acid] | −44 | −15 | −44 | −31 | 30 | −33 |  |  |  |  |  |  |  |
| CCC1(C(=O)O)OCC(CCCCc2nc(-c3ccccc3)oc2C)CO1 (stereo not drawn) [Example 21, 2-Ethyl-c-5-[4-(5-methyl-2-phenyloxazol-4-yl)butyl]-1,3-dioxane-r-2-carboxylic acid] |  |  |  |  |  |  | −38 | −18 | −26 | −52 | 5 | −26 |  |
| Cc1ccc(-c2nc(CCCCCCOC(C)(C)C(=O)O)c(C)o2)cc1 [Example 37, 2-Methyl-2-{6-[5-methyl-2-(p-tolyl)oxazol-4-yl]hexyloxy}propionic acid] |  |  |  |  |  |  | −70 | −5 | −27 | −51 | 33 | −54 |  |
| Cc1oc(-c2ccccc2)nc1CC#CCCCOC(C)(C)C(=O)O [Example 38, 2-Methyl-2-[6-(5-methyl-2-phenyloxazol-4-yl)-4-hexynyloxy]propionic acid] | −65 | −21 | −39 | −50 | 38 | −38 |  |  |  |  |  |  |  |
| Cc1oc(-c2ccc(Cl)cc2)nc1CCCCCCOC(C)(C)C(=O)O [Example 39, 2-{6-[2-(4-Chlorophenyl)-5-methyloxazol-4-yl]hexyloxy}-2-methylpropionic acid] | −73 | −14 | −20 | −56 | 36 | −53 |  |  |  |  |  |  |  |
| Cc1oc(-c2ccccc2)nc1/C=C/CCC1COC(C)(C(=O)O)OC1 (stereo not drawn) [Example 53, 2-Methyl-c-5-[4-(5-methyl-2-phenyloxazol-4-yl)-(E)-3-butenyl]-1,3-dioxane-r-2-carboxylic acid] |  |  |  |  |  |  | −62 | −46 | −37 | −51 | 3 | −49 |  |
| Cc1oc(-c2ccccc2)nc1C/C=C/CCCOC(C)(C)C(=O)O [Example 54, Potassium 2-methyl-2-[6-(5-methyl-2-phenyloxazol-4-yl)-(E)-4-hexenyloxy]propionate] | −83 | −24 | −14 | −72 | 24 | −77 |  |  |  |  |  |  |  |
| Cc1oc(-c2ccccc2)nc1CCCCCCOC(C)(C)CO [Example 55, 2-Methyl-2-[6-(5-methyl-2-phenyloxazol-4-yl)hexyloxy]-propanol] |  |  |  |  |  |  |  |  |  |  |  |  | Percent change of each parameter compared to control group (%): AI (dose 10 mg/kg): −72%; Percent change of each parameter compared to control group (%): BG (dose 10 mg/kg): −22%; Percent change of each parameter compared to control group (%): Ins (dose 10 mg/kg): 2%; Percent change of each parameter compared to control group (%): TG (dose 10 mg/kg): −45%; Percent change of each parameter compared to control group (%): HDL-C (dose 10 mg/kg): 62%; Percent change of each parameter compared to control group (%): (V)LDL-C (dose 10 mg/kg): −44% |
| Cc1ccc(-c2nc(CCCCC3COC(C)(C(=O)O)OC3)c(C)o2)cc1F (stereo not drawn) [Example 64, 2-Methyl-c-5-{4-[5-methyl-2-(3-fluoro-4-methylphenyl)-oxazol-4-yl]butyl}-1,3-dioxane-r-2-carboxylic acid] | −72 | −12 | −20 | −53 | 21 | −63 |  |  |  |  |  |  |  |
| Cc1ccc(-c2nc(CCCCC3COC(C)(C(=O)O)OC3)c(C)s2)cc1 (stereo not drawn) [Example 70, 2-Methyl-c-5-{4-[5-methyl-2-(p-tolyl)thiazol-4-yl]-butyl}-1,3-dioxane-r-2-carboxylic acid] |  |  |  |  |  |  | −53 | −15 | 5 | −37 | 41 | −33 |  |
| Cc1cccc(-c2nc(CCCCC3COC(C)(C(=O)O)OC3)c(C)o2)c1 (stereo not drawn) [Example 71, 2-Methyl-c-5-{4-[5-methyl-2-(m-tolyl)oxazol-4-yl]butyl}-1,3-dioxane-r-2-carboxylic acid] |  |  |  |  |  |  | −90 | −51 | −61 | −89 | 1 | −90 |  |
